In ChEMBL document CHEMBL3632520, “Correlation of antioxidant activities with theoretical studies for new hydrazone compounds bearing a 3,4,5-trimethoxy benzyl moiety” (Eur J Med Chem, 2015):
Converted amounts (≈) assume the structure as drawn.

Legend:
Type in all cases: physicochemical
[1] = Antioxidant activity assessed as DPPH radical scavenging activity measured as discoloration incubated for 30 mins in dark relative to control; conditions: 0.5 h
[2] = Antioxidant activity assessed as DPPH radical scavenging activity measured as discoloration incubated for 30 mins in dark
[3] = Antioxidant activity assessed as ferric ion reducing activity using fe3+-TPTZ assessed as fe2+-TPTZ formation after 30 mins by FRAP assay; conditions: 0.5 h

inhibition (INH) [1] [%]	IC50 [2] [µg/mL]	Activity [3] [µM]	Structure (SMILES)
53.3	106 (≈ 221 µM)	1844	CCOc1cc(/C=N/NC(=O)c2ccc(OCc3cc(OC)c(OC)c(OC)c3)cc2)ccc1O
54.8	99.7 (≈ 452 µM)	2837	Cc1cc(C(C)(C)C)c(O)c(C(C)(C)C)c1 [BUTYLATED HYDROXYTOLUENE]
15.6	> 100	125	COc1cc(COc2ccc(C(=O)N/N=C/c3cc(Br)cc(Cl)c3O)cc2)cc(OC)c1OC
37.2	264 (≈ 794 µM)	3515	COc1cc(COc2ccc(C(=O)NN)cc2)cc(OC)c1OC
10.8	> 100	27	CCOC(=O)c1ccc(OCc2cc(OC)c(OC)c(OC)c2)cc1
10.4	> 100	1365	COc1cc(/C=N/NC(=O)c2ccc(OCc3cc(OC)c(OC)c(OC)c3)cc2)cc(OC)c1OC

Further lines, the compound ahead of its results:

Structure (SMILES)	inhibition (INH) [1] [%]	IC50 [2] [µg/mL]	Activity [3] [µM]
O=C1O[C@H]([C@@H](O)CO)C(O)=C1O [ASCORBIC ACID]	90.6	40 (≈ 227 µM)	2562
COc1cc(COc2ccc(C(=O)N/N=C/c3cc(C(C)(C)C)c(O)c(C(C)(C)C)c3)cc2)cc(OC)c1OC	75.3	62 (≈ 113 µM)	1096
COc1cc(COc2ccc(C(=O)N/N=C/c3cccc(O)c3)cc2)cc(OC)c1OC	9.3	> 100	1819
COc1cc(COc2ccc(C(=O)N/N=C/c3ccc(OC)c(OC)c3OC)cc2)cc(OC)c1OC	10.4	> 100	1609
COc1cc(/C=N/NC(=O)c2ccc(OCc3cc(OC)c(OC)c(OC)c3)cc2)cc(OC)c1O	57.9	75 (≈ 151 µM)	2087
COc1cc(COc2ccc(C(=O)N/N=C/c3ccccc3O)cc2)cc(OC)c1OC	9.6	> 100	26
COc1cc(COc2ccc(C(=O)N/N=C/c3ccc(O)cc3)cc2)cc(OC)c1OC	18.7	> 100	3056
